Here are results for 23 compounds from patent US20120121540A1 (priority 2007, published 2012).

This assay in a line: HCV replicon assay (luciferase reporter, ET cell line). In kind it is cell-based. The following applies: Hepatitis C virus, HCV replicon luciferase activity in ET cells. A digest of the protocol: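 ET cells carry a stable luciferase-ubiquitin-neo/NS3-5B subgenomic HCV replicon with adaptive mutations. Compounds (0.1 nM to […], 0.5% DMSO) were added 24 h after plating, and luciferase was read 48-72 h later. EC50 came from 10-point 2-fold dilutions fitted to a Hill equation; TC50 was measured in parallel by WST-1.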
In general terms: In antiviral work, replicon cells carry a viral genome segment that copies itself.

`O=C(NCc1cccs1)c1nc2c(C(F)(F)F)cc(-c3ccc(C(F)(F)F)cc3)cn2c1Cl` [Compound 199, 3-Chloro-8-trifluoromethyl-6-(4-trifluoromethyl-phenyl)-imidazo[1,2-a]pyridine-2-carboxylic acid (thiophen-2-ylmethyl)-amide] yielded an inhibition at 10 µM of 41%.
Compound `O=C(NCc1cccs1)c1nc2c(C(F)(F)F)cc(-c3ccsc3)cn2c1-c1ccsc1` [Compound 200, 3,6-Di-thiophen-3-yl-8-trifluoromethyl-imidazo[1,2-a]pyridine-2-carboxylic acid (thiophen-2-ylmethyl)-amide] displayed an inhibition at 10 µM of 91.6%.
Turning to `O=C(NCc1ccccc1F)c1nc2c(C(F)(F)F)cc(-c3ccco3)cn2c1Cl` [Compound 201, 3-Chloro-6-furan-2-yl-8-trifluoromethyl-imidazo[1,2-a]pyridine-2-carboxylic acid 2-fluoro-benzylamide], 10 µM produced 72.4% inhibition.
The result for `O=C(NCc1ccccc1OC(F)(F)F)c1nc2c(C(F)(F)F)cc(-c3ccco3)cn2c1Cl` [Compound 202, 3-Chloro-6-furan-2-yl-8-trifluoromethyl-imidazo[1,2-a]pyridine-2-carboxylic acid 2-trifluoromethoxy-benzylamide] reads 78.1%.
The result for `O=C(NCc1cccc(OC(F)(F)F)c1)c1nc2c(C(F)(F)F)cc(-c3ccco3)cn2c1Cl` [Compound 203, 3-Chloro-6-furan-2-yl-8-trifluoromethyl-imidazo[1,2-a]pyridine-2-carboxylic acid 3-trifluoromethoxy-benzylamide] reads 47.5%; that for `O=C(NCc1ccc(OC(F)(F)F)cc1)c1nc2c(C(F)(F)F)cc(-c3ccco3)cn2c1Cl` [Compound 204, 3-Chloro-6-furan-2-yl-8-trifluoromethyl-imidazo[1,2-a]pyridine-2-carboxylic acid 4-trifluoromethoxy-benzylamide], 31.7%.
Take `O=C(NCc1cccs1)c1nc2c(C(F)(F)F)cc(-c3ccncc3)cn2c1Cl` [Compound 207, 3-Chloro-6-pyridin-4-yl-8-trifluoromethy-imidazo[1,2-a]pyridine-2-carboxylic acid (thiophen-2-ylmethyl)-amide]: at 10 µM the inhibition was 85.7%.
In the case of `O=C(NCc1cccs1)c1nc2c(C(F)(F)F)cc(-c3cccnc3)cn2c1Cl` [Compound 208, 3-Chloro-6-pyridin-3-yl-8-trifluoromethyl-imidazo[1,2-a]pyridine-2-carboxylic acid (thiophen-2-ylmethyl)-amide] it was 88.5%.
As to `Cc1cscc1-c1cc(C(F)(F)F)c2nc(C(=O)NCc3cccs3)c(Cl)n2c1` [Compound 209, 3-Chloro-6-(4-methyl-thiophen-3-yl)-8-trifluoromethyl-imidazo[1,2-a]pyridine-2-carboxylic acid (thiophen-2-ylmethyl)-amide], the inhibition at 10 µM was 83.4%.
For `O=C(Nc1ccccc1)Nc1nc2c(C(F)(F)F)cc(-c3ccco3)cn2c1Cl` [Compound 211, 1-(3-Chloro-6-furan-2-yl-8-trifluoromethyl-imidazo[1,2-a]pyridin-2-yl)-3-phenyl-urea], the inhibition at 10 µM was determined as 51.8%.
The result for `O=C(NCc1ccc(N2CCOCC2)cc1)c1nc2c(C(F)(F)F)cc(-c3ccco3)cn2c1Cl` [Compound 212, 3-Chloro-6-furan-2-yl-8-trifluoromethyl-imidazo[1,2-a]pyridine-2-carboxylic Acid 4-morpholin-4-yl-benzylamide] reads 56.7%; that for `O=C(NCc1cccc(N2CCOCC2)c1)c1nc2c(C(F)(F)F)cc(-c3ccco3)cn2c1Cl` [Compound 213, 3-Chloro-6-furan-2-yl-8-trifluoromethyl-imidazo[1,2-a]pyridine-2-carboxylic Acid 3-morpholin-4-yl-benzylamide], 2.7%; that for `CN(C)CCOc1ccc(CNC(=O)c2nc3c(C(F)(F)F)cc(-c4ccco4)cn3c2Cl)cc1` [Compound 214, 3-Chloro-6-furan-2-yl-8-trifluoromethyl-imidazo[1,2-a]pyridine-2-carboxylic Acid 4-(2-dimethylamino-ethoxy)-benzylamide], 49%.
The result for `CN(C)CCOc1ccccc1CNC(=O)c1nc2c(C(F)(F)F)cc(-c3ccco3)cn2c1Cl` [Compound 215, 3-Chloro-6-furan-2-yl-8-trifluoromethyl-imidazo[1,2-a]pyridine-2-carboxylic Acid 2-(2-dimethylamino-ethoxy)-benzylamide] reads 49%; that for `O=C(c1nc2c(C(F)(F)F)cc(-c3ccco3)cn2c1Cl)N1CCCC(c2ccccc2)C1` (centres unmarked) [Compound 216, (3-Chloro-6-furan-2-yl-8-trifluoromethyl-imidazo[1,2-a]pyridin-2-yl)-(3-phenyl-piperidin-1-yl)-methanone], 60.3%.
The result for `O=C(c1nc2c(C(F)(F)F)cc(-c3ccco3)cn2c1Cl)N1Cc2cccnc2C1` [Compound 217, (3-Chloro-6-furan-2-yl-8-trifluoromethyl-imidazo[1,2-a]pyridin-2-yl)-(5,7-dihydro-pyrrolo[3,4-b]pyridin-6-yl)-methanone] reads 38.8%; that for `O=C(c1nc2c(C(F)(F)F)cc(-c3ccco3)cn2c1Cl)N1CCC(c2ccccc2)CC1` [Compound 218, (3-Chloro-6-furan-2-yl-8-trifluoromethyl-imidazo[1,2-a]pyridin-2-yl)-(4-phenyl-piperidin-1-yl)-methanone], 63.5%; that for `O=C(NCc1ccc(-c2ccccn2)s1)c1nc2c(C(F)(F)F)cc(-c3ccco3)cn2c1Cl` [Compound 219, 3-Chloro-6-furan-2-yl-8-trifluoromethyl-imidazo[1,2-a]pyridine-2-carboxylic Acid (5-pyridin-2-yl-thiophen-2-ylmethyl)-amide], 25.4%.
Take `COC(=O)Cc1c(C(=O)NCc2cccs2)nc2c(C(F)(F)F)cc(-c3ccoc3)cn12` [Compound 222, {6-Furan-3-yl-2-[(thiophen-2-ylmethyl)-carbamoyl]-8-trifluoromethyl-imidazo[1,2-a]pyridin-3-yl}-acetic Acid Methyl Ester]: the inhibition at 10 µM worked out at 66.1%.
The result for `O=C(O)Cc1c(C(=O)NCc2cccs2)nc2c(C(F)(F)F)cc(-c3ccoc3)cn12` [Compound 226, {6-Furan-3-yl-2-[(thiophen-2-ylmethyl)-carbamoyl]-8-trifluoromethyl-imidazo[1,2-a]pyridin-3-yl}-acetic Acid] reads 98.8%; that for `O=C(NCc1cccs1)c1nc2c(C(F)(F)F)cc(-c3ccoc3)cn2c1[N+](=O)[O-]` [Compound 232, 6-Furan-3-yl-3-nitro-8-trifluoromethyl-imidazo[1,2-a]pyridine-2-carboxylic Acid (thiophen-2-ylmethyl)-amide], 56.6%; that for `O=C(c1nc2c(C(F)(F)F)cc(-c3ccoc3)cn2c1Cl)N1CCC(c2ccc(F)cc2)C1` (centres unmarked) [Compound 233, (3-Chloro-6-furan-3-yl-8-trifluoromethyl-imidazo[1,2-a]pyridin-2-yl)-[3-(4-fluoro-phenyl)-pyrrolidin-1-yl]-methanone], 90.6%.
In the case of `O=C(c1nc2c(C(F)(F)F)cc(-c3cccc(F)c3)cn2c1Cl)N1CCC(c2ccc(F)cc2)C1` (centres unmarked) [Compound 234, [3-Chloro-6-(3-fluoro-phenyl)-8-trifluoromethyl-imidazo[1,2-a]pyridin-2-yl]-[3-(4-fluoro-phenyl)-pyrrolidin-1-yl]-methanone] it was 81.8%.

A word on the inhibition: it is the drop in the measured response relative to a control, in per cent. The low end stands for a response near the control, the high end for a response far below the control.
